Reference: PubChem BioAssay AID1963843 (Molecular Pharmacology Branch, DTP, NCI, 2024)

System: 616215-338-R-J1-PDC complex spheroid viability
Test: Anticancer human tumor 616215-338-R-J1-PDC patient-derived colon adenocarcinoma cell line growth inhibition [POLQ]
Details: for IC50: curve of first compound; for viability, T/C: stronger effect = lower value; active = viability on the fitted dose curve at most 10% of control; inactive = the rest
How it was run: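 PDC + HUVEC + MSC complex spheroids; POLQ inhibitors ± partner drugs; top conc. at/near clinical Cmax, else 10 microM (SN-38 1 microM), half-log dilutions; 37 degrees C, 5% CO2.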

[1] = second compound 0.0316 µM, first compound 0.0316 µM
[2] = second compound 0.0316 µM, first compound 0.1 µM
[3] = second compound 0.0316 µM, first compound 0.316 µM
[4] = second compound 0.0316 µM, first compound 1 µM
[5] = second compound 0.0316 µM, first compound 3.16 µM
[6] = second compound 0.0316 µM, first compound 10 µM
[7] = second compound 0.1 µM, first compound 0.0316 µM
[8] = second compound 0.1 µM, first compound 0.1 µM
[9] = second compound 0.1 µM, first compound 0.316 µM
[10] = second compound 0.1 µM, first compound 1 µM
[11] = second compound 0.1 µM, first compound 3.16 µM
[12] = second compound 0.1 µM, first compound 10 µM
[13] = second compound 0.316 µM, first compound 0.0316 µM
[14] = second compound 0.316 µM, first compound 0.1 µM
[15] = second compound 0.316 µM, first compound 0.316 µM
[16] = second compound 0.316 µM, first compound 1 µM
[17] = second compound 0.316 µM, first compound 3.16 µM
[18] = second compound 0.316 µM, first compound 10 µM
[19] = second compound 1 µM, first compound 0.0316 µM
[20] = second compound 1 µM, first compound 0.1 µM
[21] = second compound 1 µM, first compound 0.316 µM
[22] = second compound 1 µM, first compound 1 µM
[23] = second compound 1 µM, first compound 3.16 µM
[24] = second compound 1 µM, first compound 10 µM
[25] = second compound 3.16 µM, first compound 0.0316 µM
[26] = second compound 3.16 µM, first compound 0.1 µM
[27] = second compound 3.16 µM, first compound 0.316 µM
[28] = second compound 3.16 µM, first compound 1 µM
[29] = second compound 3.16 µM, first compound 3.16 µM
[30] = second compound 3.16 µM, first compound 10 µM
[31] = second compound 10 µM, first compound 0.0316 µM
[32] = second compound 10 µM, first compound 0.1 µM
[33] = second compound 10 µM, first compound 0.316 µM
[34] = second compound 10 µM, first compound 1 µM
[35] = second compound 10 µM, first compound 3.16 µM
[36] = second compound 10 µM, first compound 10 µM
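Note: spheroids exposed to compounds for one week before readout.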
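Throughout, for viability, T/C: percent viability relative to DMSO vehicle wells taken as 100%.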

CC1COCCN1c1cc(C2(O)CC3CCC(C2)O3)c2cnn(-c3ccn[nH]3)c2n1 (stereo unspecified) + Cc1cccc(N(C)C(=O)C2C(O)CCN2c2nc(C)cc(C(F)(F)F)c2C#N)c1
4300 nM: IC50 (second compound 3.16 µM)
3780 nM: IC50 (second compound 1 µM)
inactive: viability, T/C [1] 98.1% | viability, T/C [2] 102% | viability, T/C [3] 76.6% | viability, T/C [4] 65.3% | viability, T/C [5] 56.2% | viability, T/C [6] 38.9% | viability, T/C [7] 101% | viability, T/C [8] 99.1% | viability, T/C [9] 76.2% | viability, T/C [10] 71.7% | viability, T/C [11] 46.5% | viability, T/C [12] 33.6% | viability, T/C [13] 106% | viability, T/C [14] 103% | viability, T/C [15] 74.9% | viability, T/C [16] 61.4% | viability, T/C [17] 53.5% | viability, T/C [18] 33.6% | viability, T/C [19] 105% | viability, T/C [20] 94.7% | viability, T/C [21] 74.2% | viability, T/C [22] 70% | viability, T/C [23] 57.9% | viability, T/C [24] 33% | viability, T/C [25] 106% | viability, T/C [26] 92% | viability, T/C [27] 71.1% | viability, T/C [28] 71.8% | viability, T/C [29] 58.1% | viability, T/C [30] 36.6% | viability, T/C [31] 105% | viability, T/C [32] 94.6% | viability, T/C [33] 68.8% | viability, T/C [34] 53.4% | viability, T/C [35] 44% | viability, T/C [36] 30.8%
2950 nM: IC50 (second compound 0.1 µM)
1400 nM: IC50 (second compound 10 µM)
2750 nM: IC50 (second compound 0.316 µM)
3910 nM: IC50 (second compound 0.0316 µM)

CC1COCCN1c1cc(-c2ccnn2C)c2ccnc(-c3ccn[nH]3)c2n1 (stereo unspecified) + Nc1ccc(C#CCN(C(=O)Cc2ncc(C(F)(F)F)cc2C(F)(F)F)c2ccc(F)cc2)nn1
165 nM: IC50 (second compound 0.1 µM)
190 nM: IC50 (second compound 0.316 µM)
154 nM: IC50 (second compound 10 µM)
inactive: viability, T/C [1] 86% | viability, T/C [2] 56.8% | viability, T/C [3] 38.9% | viability, T/C [4] 31.7% | viability, T/C [5] 25.9% | viability, T/C [6] 27.4% | viability, T/C [7] 93.8% | viability, T/C [8] 60.6% | viability, T/C [9] 34.7% | viability, T/C [10] 29.8% | viability, T/C [11] 24.5% | viability, T/C [12] 19.4% | viability, T/C [13] 102% | viability, T/C [14] 67.4% | viability, T/C [15] 35.2% | viability, T/C [16] 26.8% | viability, T/C [17] 22.4% | viability, T/C [18] 18.9% | viability, T/C [19] 101% | viability, T/C [20] 52.9% | viability, T/C [21] 29% | viability, T/C [22] 26.8% | viability, T/C [23] 21.6% | viability, T/C [24] 23.1% | viability, T/C [25] 96.7% | viability, T/C [26] 59.5% | viability, T/C [27] 45.8% | viability, T/C [28] 24.8% | viability, T/C [29] 23.6% | viability, T/C [30] 18.7% | viability, T/C [31] 104% | viability, T/C [32] 56.4% | viability, T/C [33] 40.1% | viability, T/C [34] 25.1% | viability, T/C [35] 20.1% | viability, T/C [36] 22.2%
192 nM: IC50 (second compound 3.16 µM)
115 nM: IC50 (second compound 1 µM)
155 nM: IC50 (second compound 0.0316 µM)

COc1cccc(OCCCN)c1-c1cc(Nc2cnc(C#N)cn2)n[nH]1 + Nc1ccc(C#CCN(C(=O)Cc2ncc(C(F)(F)F)cc2C(F)(F)F)c2ccc(F)cc2)nn1
75.9 nM: IC50 (second compound 0.316 µM)
52.7 nM: IC50 (second compound 1 µM)
66.1 nM: IC50 (second compound 3.16 µM)
39 nM: IC50 (second compound 10 µM)
78.7 nM: IC50 (second compound 0.1 µM)
136 nM: IC50 (second compound 0.0316 µM)
inactive: viability, T/C (second compound 0.0316 µM, first compound 0.00316 µM) 109% | viability, T/C (second compound 0.0316 µM, first compound 0.01 µM) 84.9% | viability, T/C [1] 91.2% | viability, T/C [2] 53.8% | viability, T/C [3] 36.9% | viability, T/C [4] 33.1% | viability, T/C (second compound 0.1 µM, first compound 0.00316 µM) 101% | viability, T/C (second compound 0.1 µM, first compound 0.01 µM) 102% | viability, T/C [7] 77.3% | viability, T/C [8] 43% | viability, T/C [9] 42.6% | viability, T/C [10] 36% | viability, T/C (second compound 0.316 µM, first compound 0.00316 µM) 98.9% | viability, T/C (second compound 0.316 µM, first compound 0.01 µM) 97.2% | viability, T/C [13] 71.2% | viability, T/C [14] 43.3% | viability, T/C [15] 42.4% | viability, T/C [16] 34.7% | viability, T/C (second compound 1 µM, first compound 0.00316 µM) 97.5% | viability, T/C (second compound 1 µM, first compound 0.01 µM) 96.6% | viability, T/C [19] 60.3% | viability, T/C [20] 38.6% | viability, T/C [21] 38% | viability, T/C [22] 29.4% | viability, T/C (second compound 3.16 µM, first compound 0.00316 µM) 103% | viability, T/C (second compound 3.16 µM, first compound 0.01 µM) 90.3% | viability, T/C [25] 72.7% | viability, T/C [26] 35.7% | viability, T/C [27] 32.9% | viability, T/C [28] 29.7% | viability, T/C (second compound 10 µM, first compound 0.00316 µM) 91.7% | viability, T/C (second compound 10 µM, first compound 0.01 µM) 69.3% | viability, T/C [31] 50.2% | viability, T/C [32] 41.2% | viability, T/C [33] 34.4% | viability, T/C [34] 24%
